Reference: patent US7153849B2, “Antidepressant arylpiperazine derivatives of hetrocycle-fused benzodioxans” (Wyeth, priority 2002, dated 2006)
Where a name gives a salt, the structure may show the parent alone.

What was measured:
[1] = target: T1, serotonin transporter (Rattus norvegicus, UniProt P31652); assay: 3H-paroxetine displacement from rat frontal cortical membranes (serotonin transporter affinity); type: binding; details: for Ki: 3H-paroxetine, male rat frontal cortical membranes, read-out: 5-HT Transporter Affinity Ki
T1 construct: displace ^3H-paroxetine from male rat frontal cortical membranes; from tissue; host or cells: male rat frontal cortical membranes

[2] = target: T2, human 5HT1A receptors (Homo sapiens, UniProt P08908); assay: [3H] 8-OH-DPAT displacement from 5HT1A receptor in stably transfected CHO cells; type: binding; details: CHO cells with human 5HT1A; for Ki: read-out: 5HT1A Receptor Affinity Ki
T2 construct: expressed in transfected cells; host or cells: CHO cells
T2 sequence (P08908 1-422): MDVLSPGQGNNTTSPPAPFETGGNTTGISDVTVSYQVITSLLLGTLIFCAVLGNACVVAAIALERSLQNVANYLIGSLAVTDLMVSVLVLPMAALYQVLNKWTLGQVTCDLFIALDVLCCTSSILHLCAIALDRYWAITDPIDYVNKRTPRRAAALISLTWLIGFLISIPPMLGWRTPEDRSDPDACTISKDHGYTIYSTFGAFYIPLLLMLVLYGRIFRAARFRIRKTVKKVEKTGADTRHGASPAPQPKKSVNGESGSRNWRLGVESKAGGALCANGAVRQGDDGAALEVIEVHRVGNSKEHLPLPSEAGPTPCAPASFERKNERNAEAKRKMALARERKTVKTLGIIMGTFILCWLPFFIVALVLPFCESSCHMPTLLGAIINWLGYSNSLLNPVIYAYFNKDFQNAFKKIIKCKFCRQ
Excerpt: High affinity for the serotonin 5HT1A receptor was established by testing the claimed compound's ability to displace [^3H] 8-OH-DPAT (dipropylamino-tetralin) from the 5HT1A serotonin receptor following a modification of the procedure of Hall et al., J. Neurochem. 44, 1685 (1985) which utilizes CHO cells stably transfected with human 5HT1A receptors.

[3] = target: T3, cloned human 5HT1A receptors (Homo sapiens, UniProt P08908); assay: 35S-GTPγS binding assay, 5HT1A antagonist activity; type: biochemical; details: for 5HT1A Function Imax: maximum inhibitory effect, vs 8-OH-DPAT, unit assumed; for IC50: reversal of 8-OH-DPAT (antagonist), read-out: 5HT1A Function IC50; for 5HT1A Function Emax / EC50: increase in binding (agonist); for EC50: read-out: 5HT1A Function EC50
T3 construct: expressed in transfected cells
T3 sequence (P08908 1-422): T2 sequence (P08908 1-422)
Protocol: Antagonist activity at 5HT1A receptors was established by using a ^35S-GTPγS binding assay similar to that used by Lazareno and Birdsall (Br. J. Pharmacol. 109:1120, 1993), in which the test compound's ability to affect the binding of ^35S-GTPγS to membranes containing cloned human 5HT1A receptors was determined. Agonists produce an increase in binding whereas antagonists produce no increase but rather reverse the effects of the standard agonist 8-OH-DPAT. The test compound's maximum inhibitory effect is represented as the Imax, while its potency is defined by the IC50.

T1 sequence (P31652 whole entry): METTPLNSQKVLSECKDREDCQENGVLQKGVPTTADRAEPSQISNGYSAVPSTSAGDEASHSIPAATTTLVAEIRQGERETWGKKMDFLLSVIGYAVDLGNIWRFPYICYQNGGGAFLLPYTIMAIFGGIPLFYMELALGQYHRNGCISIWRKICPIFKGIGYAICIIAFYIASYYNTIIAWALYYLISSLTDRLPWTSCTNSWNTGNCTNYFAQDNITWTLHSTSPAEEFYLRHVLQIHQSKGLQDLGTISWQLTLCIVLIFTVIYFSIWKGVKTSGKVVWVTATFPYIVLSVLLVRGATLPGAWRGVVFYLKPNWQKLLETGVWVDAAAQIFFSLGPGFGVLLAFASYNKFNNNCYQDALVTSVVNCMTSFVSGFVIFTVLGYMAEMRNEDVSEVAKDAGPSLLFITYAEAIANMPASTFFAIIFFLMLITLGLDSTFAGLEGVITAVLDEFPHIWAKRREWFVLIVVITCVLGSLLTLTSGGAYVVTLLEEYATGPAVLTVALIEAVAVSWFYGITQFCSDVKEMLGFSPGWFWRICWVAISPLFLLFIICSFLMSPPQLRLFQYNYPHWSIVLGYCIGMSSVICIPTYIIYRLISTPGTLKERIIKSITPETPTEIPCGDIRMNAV

| Structure (SMILES) | melting point | Ki [1] | Ki [2] | 5HT1A Function Imax [3] | IC50 [3] | further results |
| --- | --- | --- | --- | --- | --- | --- |
| Cc1ccc2c3c(ccc2n1)OC[C@H](CN1CCN(c2ccc(Cl)c(Cl)c2)CC1)O3 (as salt: fumarate) [Example 3, (2S)-2-{[4-(3,4-dichlorophenyl)piperazin-1-yl]methyl}-8-methyl-2,3-dihydro[1,4]dioxine[2,3-f]quinoline] | 140 to 144 °C | – | – | – | – | – |
| Cc1ccc2c3c(ccc2n1)OC[C@H](CN1CCN(c2cccc4c2OCCO4)CC1)O3 (as salt: fumarate) [Example 7, (2S)-2-{[4-(dihydrobenzo[1,4]dioxin-5-yl)piperazin-1-yl]methyl}-8-methyl-2,3-dihydro[1,4]dioxino[2,3-f]quinoline] | 154 to 155 °C | – | – | – | – | – |
| Cc1ccc2c3c(ccc2n1)OC[C@H](CN1CCN(c2ccc4ccccc4n2)CC1)O3 (as salt: hydrochloride) [Example 12, (2S)-8-methyl-2-[(4-quinolin-2-ylpiprazin-1-yl)methyl]-2,3-dihydro[1,4]dioxino[2,3-f]quinoline] | 237 to 243 °C | – | – | – | – | – |
| Cc1ccc2c3c(ccc2n1)OC[C@H](CN1CCN(c2ccc4cc([N+](=O)[O-])ccc4n2)CC1)O3 (as salt: salt) [Example 13] | 200 °C (dec.) | – | – | – | – | – |
| Cc1ccc2c3c(ccc2n1)OC[C@H](CN1CCN(c2cccc(Cl)c2)CC1)O3 [Example 1, (2S)-2-{[4-(3-chlorophenyl)piperazin-1-yl]methyl}-8-methyl-2,3-dihydro[1,4]dioxino[2,3-f]quinoline] | 110 to 112 °C | 15.7 nM | 15.9 nM | 100% | 4560 nM | – |
| Cc1ccc2c3c(ccc2n1)OC[C@H](CN1CCN(c2ccc(Cl)cc2)CC1)O3 [Example 2, (2S)-2-{[4-(4-chlorophenyl)piperazin-1-yl]methyl}-8-methyl-2,3-dihydro[1,4]dioxino[2,3-f]quinoline] | – | 565 nM | 22.9 nM | 26% | 632 nM | – |
| Cc1ccc2c3c(ccc2n1)OC[C@H](CN1CCN(c2ccc(Cl)c(Cl)c2)CC1)O3 [Example 3, (2S)-2-{[4-(3,4-dichlorophenyl)piperazin-1-yl]methyl}-8-methyl-2,3-dihydro[1,4]dioxine[2,3-f]quinoline] | – | 76 nM | 1050 nM | – | – | – |
| Cc1ccc2c3c(ccc2n1)OC[C@H](CN1CCN(c2cccc4c2OCCO4)CC1)O3 [Example 7, (2S)-2-{[4-(dihydrobenzo[1,4]dioxin-5-yl)piperazin-1-yl]methyl}-8-methyl-2,3-dihydro[1,4]dioxino[2,3-f]quinoline] | – | 1.2 nM | – | – | 557 nM | 5HT1A Receptor Affinity, % @ 1 μM ([2]; @ 1 μM): 91% @ 1 μM |
| Cc1ccc2c3c(ccc2n1)OC[C@H](CN1CCN(c2ccc4ccccc4n2)CC1)O3 [Example 12, (2S)-8-methyl-2-[(4-quinolin-2-ylpiprazin-1-yl)methyl]-2,3-dihydro[1,4]dioxino[2,3-f]quinoline] | – | 48 nM | 47.3 nM | 100% | 3000 nM | – |
| Cc1ccc2c3c(ccc2n1)OC[C@H](CN1CCN(c2ccc4cc([N+](=O)[O-])ccc4n2)CC1)O3 [Example 13] | – | 0.25 nM | 20 nM | 70% | 326 nM | – |
| Cc1ccc2c3c(ccc2n1)OC[C@H](CN1CCN(c2ccc4cc(Cl)ccc4n2)CC1)O3 [Example 14] | – | 0.65 nM | 214 nM | 58% | 74.7 nM | – |
| Cc1ccc2c3c(ccc2n1)OC[C@H](CN1CCN(c2ccc4cc(C#N)ccc4n2)CC1)O3 [Example 15, 2-(4-{[(2S)-8-methyl-2,3-dihydro[1,4]dioxino[2,3-f]quinolin-2-yl]methyl}piperazin-1-yl}quinoline-6-carbonitrile] | – | 13.5 nM | 3.7 nM | – | 82.5 nM | – |
| COc1cccc2c(N3CCN(C[C@H]4COc5ccc6nc(C)ccc6c5O4)CC3)coc12 [Example 16, (2S)-2-{[4-(7-methoxy-1-benzofuran-3-yl)-1-piperazinyl]methyl}-8-methyl-2,3-dihydro[1,4]dioxino[2,3-f]quinoline] | 56 °C | 266 nM | 28.5 nM | – | – | – |
| Cc1ccc2c3c(ccc2n1)OC[C@H](CN1CCN(c2coc4ccc(F)cc24)CC1)O3 [Example 17, (2S)-2-{[4-(5-fluoro-1-benzofuran-3-yl)-1-piperazinyl]methyl}-8-methyl-2,3-dihydro[1,4]dioxino[2,3-f]quinoline] | – | 74 nM | 718 nM | – | – | – |
| Cc1ccc2c3c(ccc2n1)OC[C@H](CN1CCN(c2coc4ccccc24)CC1)O3 [Example 18, (2S)-2-{[4-(1-benzofuran-3-yl)-1-piperazinyl]methyl}-8-methyl-2,3-dihydro[1,4]dioxino[2,3-f]quinoline] | – | 16 nM | 40.3 nM | – | – | – |
| Cc1ccc2c3c(ccc2n1)OC[C@H](CN1CCN(c2ccc4cc(C#N)ccc4n2)C[C@H]1C)O3 [Example 20] | – | 688 nM | 2.85 nM | 92% | 82.8 nM | – |
| Cc1ccc2c3c(ccc2n1)OC[C@H](CN1CCN(c2ccc4ccccc4c2)CC1)O3 [Example 22, (2S)-8-methyl-2-{[4-(2-naphthyl)piperazin-1-yl]methyl}-2,3-dihydro[1,4]dioxino[2,3-f]quinoline] | – | 19.8 nM | 53.2 nM | 76% | 4540 nM | – |
| Cc1ccc2c3c(ccc2n1)OC[C@H](CN1CCN(c2ccc4cc(C(N)=O)ccc4n2)CC1)O3 [Example 23] | – | – | 7.21 nM | 71% | 129 nM | 5-HT Transporter Affinity, % @ 1 μM [1]: 56% @ 1 μM |
| N#Cc1ccc2nc(N3CCN(C[C@H]4COc5ccc6ncccc6c5O4)CC3)ccc2c1 [Example 24, (2S)-2-[4-(2,3-Dihydro-[1,4]dioxino[2,3-f]quinolin-2-ylmethyl)-piperazin-1-yl]-quinoline-6-carbonitrile] | – | 310 nM | 7.27 nM | 58% | 57 nM | – |
| CCc1ccc2c3c(ccc2n1)OC[C@H](CN1CCN(c2ccc4cc(C#N)ccc4n2)CC1)O3 [Example 25, (2S)-2-[4-(8-Ethyl-2,3-dihydro-[1,4]dioxino[2,3-f]quinolin-2-ylmethyl)-piperazin-1-yl]-quinoline-6-carbonitrile] | – | 67 nM | 4.74 nM | – | – | 5HT1A Function Emax [3]: 67; EC50 [3]: 1140 nM |
| Cc1nc2ccc3c(c2o1)O[C@@H](CN1CCN(c2ccc4cc(C#N)ccc4n2)CC1)CO3 [Example 26, (2S)-2-[4-(2-Methyl-7,8-dihydro-1,6,9-trioxa-3-aza-cyclopenta[a]naphthalen-8-ylmethyl)-piperazin-1-yl]-quinoline-6-carbonitrile] | – | 407 nM | 25.1 nM | – | – | 5HT1A Function Emax [3]: 64; EC50 [3]: 700 nM |
| Cc1ccc2c3c(ccc2n1)OC[C@H](CN1CCNCC1)O3 [Example 29, 8-Methyl-2-piperazin-1-ylmethyl-2,3-dihydro-[1,4]dioxino[2,3-f]quinoline] | – | 200 nM | 1.26 nM | 100% | 1320 nM | – |
| COc1ccc2nc(N3CCN(C[C@H]4COc5ccc6nc(C)ccc6c5O4)CC3)ccc2c1 [Example 30, (2S)-2-{[4-(6-methoxyquinolin-2-yl)piperazin-1-yl]methyl]-8-methyl-2,3-dihydro[1,4]dioxino[2,3-f]quinoline] | 158 to 160 °C | – | – | – | – | – |
| COc1ccc2nc(N3CCCN(C[C@H]4COc5ccc6nc(C)ccc6c5O4)CC3)ccc2c1 [Example 33, (2S)-2-{[4-(6-methoxyquinolin-2-yl)-1,4-diazepan-1-yl]methyl]-8-methyl-2,3-dihydro[1,4]dioxino[2,3-f]quinoline] | – | 7.3 nM | 1.75 nM | 92% | 316 nM | – |
| Cc1ccc2c3c(ccc2n1)OC[C@H](CN1CCCN(c2ccc4cc(C#N)ccc4n2)CC1)O3 [Example 34, 2-(4-{[(2S)-8-Methyl-2,3-dihydro[1,4]dioxino[2,3-f]quinolin-2-yl]methyl}-1,4-diazepan-1-yl)quinoline-6-carbonitrile] | 80 to 85 °C | 1.09 nM | 2.04 nM | – | – | – |
